US20250154525A1, “PLANT VIRUS MOVEMENT PROTEINS AND METHODS OF USING SAME” (Molecular Transfer, Inc., priority 2016, published 2025)

system: HeLa Cells; test: GFP plasmid transfection with DOTMA/DOPE plus surface ligand peptide, fluorescent plate reader (Example 1); format: cell-based; conditions: DOTMA/DOPE + peptide linked to R12 or K16; EF1Alpha eGFP plasmid; 42 hours

Row | Substance | Relative Fluorescence of Transfection of HeLa Cells (RF)
1 | 336 (GEFYFDLRLKGDK) [compound 336] | 25262
2 | 452 (CNYYSNSYSFWLASLNPER) [compound 452] | 13888
3 | 377 (TAGSCLRRFSTM) [compound 377] | 15091
4 | 219 (RKRLQVQLSIRT) [compound 219] | 13721
5 | 360 (GDLGRPGRKGRPGPP) [compound 360] | 8516
6 | 367 (TDIPPCPHGWISLWK) [compound 367] | 39008

system: HuVec Cells; test: as above; format: cell-based; conditions: DOTMA/DOPE + peptide linked to R12 or K16; EF1Alpha eGFP plasmid; 42 hours
Outline: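 HuVEC cells in 96 well plates at 70% confluence were transfected with EF1Alpha eGFP plasmid using a 1:1 molar DOTMA/DOPE lipid mixed with a surface ligand peptide carrying a covalently attached nucleic acid binding moiety. Complexes formed for 10 minutes, 0.01 mL went to each well, cells were incubated 42 hours at 37° C., and fluorescence was read on a plate reader.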

Row | Substance | Relative Fluorescence of Transfection of HuVec Cells (RF)
7 | 336 (GEFYFDLRLKGDK) [compound 336] | 5366
8 | 452 (CNYYSNSYSFWLASLNPER) [compound 452] | 1841
9 | 377 (TAGSCLRRFSTM) [compound 377] | 9326
10 | 219 (RKRLQVQLSIRT) [compound 219] | 6237
11 | 360 (GDLGRPGRKGRPGPP) [compound 360] | 24042
12 | 367 (TDIPPCPHGWISLWK) [compound 367] | 13354

system: Human Fibroblast Cells; test: as above; format: cell-based; conditions: DOTMA/DOPE + peptide linked to R12 or K16; EF1Alpha eGFP plasmid; 42 hours
Outline: (§1)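 DOTMA/DOPE (1:1 molar) plus peptide bearing a poly-Arg or poly-Lys tag was complexed 10 min with EF1alpha eGFP plasmid in OptiMEM, then added to 70%-confluent cells (0.01 mL fibroblasts; 0.02 mL C2C12, Jurkat). After 42 h at 37 °C, GFP was read by plate reader and compared with DOTMA without ligand.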

Row | Substance | Relative Fluorescence of Transfection of Human Fibroblast Cells (RF)
13 | 336 (GEFYFDLRLKGDK) [compound 336] | 10449
14 | 452 (CNYYSNSYSFWLASLNPER) [compound 452] | 2779
15 | 377 (TAGSCLRRFSTM) [compound 377] | 6638
16 | 219 (RKRLQVQLSIRT) [compound 219] | 7389
17 | 360 (GDLGRPGRKGRPGPP) [compound 360] | 5347
18 | 367 (TDIPPCPHGWISLWK) [compound 367] | 10036

system: Jurkat Cells; test: as above; format: cell-based; conditions: DOTMA/DOPE + peptide linked to R12 or K16; EF1Alpha eGFP plasmid; 42 hours
Outline: as §1

Row | Substance | Relative Fluorescence of Transfection of Jurkat Cells (RF)
19 | 336 (GEFYFDLRLKGDK) [compound 336] | 4813
20 | 452 (CNYYSNSYSFWLASLNPER) [compound 452] | 2554
21 | 377 (TAGSCLRRFSTM) [compound 377] | 6785
22 | 219 (RKRLQVQLSIRT) [compound 219] | 10762
23 | 360 (GDLGRPGRKGRPGPP) [compound 360] | 16607
24 | 367 (TDIPPCPHGWISLWK) [compound 367] | 4365

system: NL-1 iPS Cells; test: as above; format: cell-based; conditions: DOTMA/DOPE + peptide linked to R12 or K16; EF1Alpha eGFP plasmid; 42 hours

Row | Substance | Relative Fluorescence of Transfection of NL-1 iPS Cells (RF)
25 | 336 (GEFYFDLRLKGDK) [compound 336] | 14875
26 | 452 (CNYYSNSYSFWLASLNPER) [compound 452] | 10349
27 | 377 (TAGSCLRRFSTM) [compound 377] | 5474
28 | 219 (RKRLQVQLSIRT) [compound 219] | 5770
29 | 360 (GDLGRPGRKGRPGPP) [compound 360] | 27572
30 | 367 (TDIPPCPHGWISLWK) [compound 367] | 17545

system: C2C12 Cells; test: as above; format: cell-based, mouse; conditions: DOTMA/DOPE + peptide linked to R12 or K16; EF1Alpha eGFP plasmid; 42 hours
Outline: as §1

Row | Substance | Relative Fluorescence of Transfection of C2C12 Cells (RF)
31 | 336 (GEFYFDLRLKGDK) [compound 336] | 9647
32 | 452 (CNYYSNSYSFWLASLNPER) [compound 452] | 21798
33 | 377 (TAGSCLRRFSTM) [compound 377] | 1710
34 | 219 (RKRLQVQLSIRT) [compound 219] | 1346
35 | 360 (GDLGRPGRKGRPGPP) [compound 360] | 2090
36 | 367 (TDIPPCPHGWISLWK) [compound 367] | 16207

system: HeLa Cells; test: GFP transfection with DOTMA/SEQ ID NO: 72 (fusogenic peptide)/peptide compared with Lipofectamine 2000; format: cell-based; conditions: 0.1 μL of DOTMA/SEQ ID NO: 72/Peptide in well of a 96 well plate
Outline: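 DOTMA/DOPE (1:1 molar) lipid mixed with polyarginine- or polylysine-tagged cell-surface-ligand peptide, complexed 10 min with EF1alpha eGFP plasmid at 10 μg/mL in OptiMEM, fusogenic peptide at 0.1 mg/mL final; HeLa cells ~70% confluent given 0.01 mL complex. GFP read by fluorescence plate reader and microscopy (% cells transfected) after 42 h at 37° C; Lipofectamine 2000 as comparator.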

Row | Substance | Relative Fluorescence DOTMA/SEQ ID NO: 72/Peptide, HeLa Cells (RF)
37 | 336 (GEFYFDLRLKGDK) [compound 336] | 14442
38 | 452 (CNYYSNSYSFWLASLNPER) [compound 452] | 6276
39 | 377 (TAGSCLRRFSTM) [compound 377] | 39115
40 | 219 (RKRLQVQLSIRT) [compound 219] | 12135
41 | 360 (GDLGRPGRKGRPGPP) [compound 360] | 9946
42 | 367 (TDIPPCPHGWISLWK) [compound 367] | 10427

same assay, conditions: 0.2 μL of DOTMA/SEQ ID NO: 72/Peptide in well of a 96 well plate

Row | Substance | Relative Fluorescence DOTMA/SEQ ID NO: 72/Peptide, HeLa Cells (RF)
43 | 336 (GEFYFDLRLKGDK) [compound 336] | 16702
44 | 452 (CNYYSNSYSFWLASLNPER) [compound 452] | 12671
45 | 377 (TAGSCLRRFSTM) [compound 377] | 40072
46 | 219 (RKRLQVQLSIRT) [compound 219] | 13841
47 | 360 (GDLGRPGRKGRPGPP) [compound 360] | 11168
48 | 367 (TDIPPCPHGWISLWK) [compound 367] | 21411

same assay, conditions: 0.3 μL of DOTMA/SEQ ID NO: 72/Peptide in well of a 96 well plate

Row | Substance | Relative Fluorescence DOTMA/SEQ ID NO: 72/Peptide, HeLa Cells (RF)
49 | 336 (GEFYFDLRLKGDK) [compound 336] | 13434
50 | 452 (CNYYSNSYSFWLASLNPER) [compound 452] | 12047
51 | 377 (TAGSCLRRFSTM) [compound 377] | 32914
52 | 219 (RKRLQVQLSIRT) [compound 219] | 13531
53 | 360 (GDLGRPGRKGRPGPP) [compound 360] | 10381
54 | 367 (TDIPPCPHGWISLWK) [compound 367] | 23001

same assay, conditions: 0.4 μL of DOTMA/SEQ ID NO: 72/Peptide in well of a 96 well plate

Row | Substance | Relative Fluorescence DOTMA/SEQ ID NO: 72/Peptide, HeLa Cells (RF)
55 | 336 (GEFYFDLRLKGDK) [compound 336] | 11334
56 | 452 (CNYYSNSYSFWLASLNPER) [compound 452] | 10918
57 | 377 (TAGSCLRRFSTM) [compound 377] | 22457
58 | 219 (RKRLQVQLSIRT) [compound 219] | 11712
59 | 360 (GDLGRPGRKGRPGPP) [compound 360] | 8995
60 | 367 (TDIPPCPHGWISLWK) [compound 367] | 17529

system: some examined cell types; test: Summary of Example 1: transfection expression and % cells transfected over the no peptide control; format: cell-based; conditions: on some examined cell types
Outline: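 Cells at 70% confluence received DNA complexes of EF1Alpha eGFP plasmid with DOTMA/DOPE (1:1) plus oligo-Arg- or oligo-Lys-tagged peptide ligands, formed 10 min at room temperature. After 42 h at 37 °C, 5% CO2, GFP read by plate reader and % transfected cells judged microscopically, relative to lipid without peptide.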

Row | Substance | transfection expression and % cells transfected over the no peptide control
61 | 336 (GEFYFDLRLKGDK) [compound 336] | increased transfection expression and the % cells transfected
62 | 452 (CNYYSNSYSFWLASLNPER) [compound 452] | increased transfection expression and the % cells transfected
63 | 377 (TAGSCLRRFSTM) [compound 377] | increased transfection expression and the % cells transfected
64 | 219 (RKRLQVQLSIRT) [compound 219] | increased transfection expression and the % cells transfected
65 | 360 (GDLGRPGRKGRPGPP) [compound 360] | increased transfection expression and the % cells transfected
66 | 367 (TDIPPCPHGWISLWK) [compound 367] | increased transfection expression and the % cells transfected
